“And” between values parts separate entries of the source, which are not always exact repeats. Identical values can stand only once.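 Five concentrations, 48 hours, 96-well plates. GI50 = concentration required for 50% inhibition of growth. The concentration for full growth arrest is given as TGI.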
What was measured:
Assay in all cases: NCI-60 cell line screen, 48 h
[1] = test system: CCRF-CEM leukemia
[2] = test system: NCI-H522 lung
[3] = test system: HCT-116 colon
[4] = test system: NCI-H460 lung
[5] = test system: DU-145 prostate
[6] = test system: EKVX NSCLC
[7] = test system: CAKI-1 renal
[8] = test system: ACHN renal
[9] = test system: UACC-62 melanoma
[10] = test system: M14 melanoma

| SMILES | GI50 [1] [µM] | TGI [1] [µM] | GI50 [2] | TGI [2] [µM] | GI50 [3] | TGI [3] [µM] | GI50 [4] | TGI [4] [µM] | GI50 [5] | TGI [5] [µM] | GI50 [6] [µM] | TGI [6] [µM] | GI50 [7] | TGI [7] [µM] | GI50 [8] | TGI [8] [µM] | GI50 [9] [µM] | TGI [9] [µM] | GI50 [10] [µM] | TGI [10] [µM] |
| --- | --- | --- | --- | --- | --- | --- | --- | --- | --- | --- | --- | --- | --- | --- | --- | --- | --- | --- | --- | --- |
| C/C(COc1ccc2oc(-c3ccccc3)cc(=O)c2c1)=N\O | 41.4 | > 100 | > 100 µM | > 100 | 25.3 µM | > 100 | 14.3 µM | > 100 | 48.5 µM | > 100 | 2.89 | 26.6 | 32.5 µM | > 100 | > 100 µM | > 100 | 16.8 | 81.4 | 15.3 | 46.3 |
| FC(F)(F)c1cccc(Oc2ccc(Nc3ncnc4ccc(OCCCN5CCOCC5)cc34)cc2Cl)c1 | 2.77 | 11.2 | 0.833 µM | 3.3 | 1.62 µM | 3.08 | 1.9 µM | 3.56 | 2.42 µM | 10.3 | 0.872 | 8.47 | 1.34 µM | 6.62 | 1.62 µM | 11.1 | 1.7 | 3.13 | 1.75 | 3.51 |
| O=c1oc2ccc(F)cc2c(=O)n1-c1ccc(I)cc1F | 1.83 | 52 | 0.322 µM | – | 0.387 µM | 2.03 | 0.404 µM | 9.85 | 0.497 µM | 26.4 | 0.831 | 7.27 | 0.337 µM | 2.19 | 0.43 µM | 7.39 | 0.293 | 1.1 | 0.49 | 4.27 |
| O=c1cc(-c2ccccc2)oc2c(O)c(O)ccc12 | 3.45 | > 100 | 8.27 µM | > 100 | 4.01 µM | > 100 | 4.44 µM | > 100 | 8.66 µM | > 100 | 18.4 | > 100 | 7.18 µM | 61.2 | 5.69 µM | > 100 | 13.8 | 66.4 | 9.55 | 41.4 |
| COc1cc(OCCCN2CCCC2)ccc1Nc1ncc(Cl)c(Nc2ccccc2P(C)(C)=O)n1 | 2.09 | 15.8 | 0.811 µM | 3.95 | 1.74 µM | 7.24 | 2.47 µM | 12 | 1.91 µM | 36.4 | 0.828 | > 20.5 | 2.02 µM | 5.64 | 2.46 µM | 16.7 | 2.43 | 12.9 | 2.58 | 12.3 |
| O=C1NN(C(=O)c2ccccc2)C(c2ccc(Cl)c(Cl)c2)=C/C1=C\c1ccccc1[N+](=O)[O-] | 1.91 | > 6.75 | 1.24 µM | 3.77 | 2.03 µM | > 6.75 | 1.78 µM | 5.2 | 2.78 µM | > 6.75 | 2.81 | > 6.75 | 2.27 µM | > 6.75 | 3.09 µM | > 6.75 | 1.44 | > 6.75 | 1.9 | > 6.75 |
| COc1cccc(C2SC(C)C(=O)N2NC(=O)C(O)c2ccccc2)c1 (stereo not drawn) | > 100 | > 100 | > 100 µM | > 100 | > 100 µM | > 100 | > 100 µM | > 100 | > 100 µM | > 100 | > 100 | > 100 | > 100 µM | > 100 | > 100 µM | > 100 | > 100 | > 100 | > 100 | > 100 |
| C[C@]12CC[C@@H]3c4ccc(O)cc4CC[C@H]3[C@@H]1CC(Cc1ccccc1)(Cc1ccccc1)C2=O | 14.3 | 36.4 | 16.6 µM | 36.3 | 8.59 µM | 20.7 | 12.1 µM | 38.1 | 15.1 µM | 30.5 | 10.9 | 24.7 | 25.6 µM | 45.3 | 14.5 µM | 27.9 | 15.1 | 29.3 | 13.1 | 26.2 |
| COc1nc2c(c(=O)n1C)CN(c1ccccc1)C(=O)CN2C | > 100 | > 100 | 96.7 µM | > 100 | 60.5 µM | > 100 | 60.2 µM | > 100 | 61.1 µM | > 100 | 19.9 | > 100 | 20.1 µM | > 100 | 49.9 µM | > 100 | 45.8 | > 100 | 62.6 | > 100 |
| Oc1c(CN2CCCCC2)ccc2cccnc12 | 3.21 | > 100 | 3.6 µM | 10.9 | 2.73 µM | 9.18 | 2.31 µM | 7.62 | 5.42 µM | 36.4 | 3.26 | 37.4 | 0.52 µM | 3.23 | 1.87 µM | > 100 | 3.95 | 51.4 | 2.3 | 8.06 |
| C[C@]1(c2nc3c(C(N)=O)cccc3[nH]2)CCCN1 | > 100 | > 100 | > 63 µM and 97.6 µM | > 100 | 48.2 µM and 65.7 µM | > 100 | 35.5 µM and 48.6 µM | > 100 | 74 µM and > 100 µM | > 100 | > 100 | > 100 | 59 µM and 74.9 µM | > 100 | 41.8 µM and > 100 µM | > 100 | > 100 | > 100 | > 100 | > 100 |
| Cn1cc(-c2ncnc3ccc(-c4cnc(Cl)c(NS(C)(=O)=O)c4)cc23)c2ccccc21 | 0.687 | > 62.7 | 1.42 µM | > 100 | 2.37 µM | 98.1 | 0.365 µM | > 100 | 1.05 µM | > 100 | 0.598 | – | 0.415 µM | 27 | 0.781 µM | > 100 | 0.181 | 1.95 | 0.976 | > 100 |
| CC1(C)CC[C@]2(C(=O)NCCNCCN)CC[C@]3(C)C(=CC[C@@H]4[C@@]5(C)CCC(=O)C(C)(C)[C@@H]5CC[C@]43C)[C@@H]2C1 | 2.51 | 8.64 | 1.78 µM | 3.91 | 1.75 µM | 3.21 | 1.86 µM | 3.51 | 1.85 µM | 3.41 | 1.74 | 3.67 | 1.82 µM | 4.47 | 1.77 µM | 3.2 | 1.69 | 3.14 | 1.87 | 3.5 |
